Here are results for 1 molecule from PMC8901636, “Preclinical studies of Flonoltinib Maleate, a novel JAK2/FLT3 inhibitor, in treatment of JAK2^V617F-induced myeloproliferative neoplasms” (Blood Cancer Journal, 2022).

Structures are written as SMILES.

In one experiment the target is JAK3 (Homo sapiens, UniProt P52333). Nature of the experiment: In vitro kinase assay.
Another experiment has as its system HEL. The experiment can be described thus: MTT assay for cell proliferation. The experiment is classed as cell-based. Conditions: Homo sapiens, 72 h, read-out: IC50(μM) ± SD, tumor cell proliferation. For orientation: Formazan colour is commonly taken as a measure of viable cells.
A further experiment addresses TYK2 (Homo sapiens, UniProt P29597). The experiment can be described thus: In vitro kinase assay.
Another experiment deals with Ba/F3-FLT3-ITD^F691. The experiment can be described thus: MTT assay for cell proliferation. The experiment is classed as cell-based, Murine. Particulars: Mus musculus, 72 h, read-out: IC50(μM) ± SD, tumor cell proliferation.

JAK3, sequence (P52333 whole entry): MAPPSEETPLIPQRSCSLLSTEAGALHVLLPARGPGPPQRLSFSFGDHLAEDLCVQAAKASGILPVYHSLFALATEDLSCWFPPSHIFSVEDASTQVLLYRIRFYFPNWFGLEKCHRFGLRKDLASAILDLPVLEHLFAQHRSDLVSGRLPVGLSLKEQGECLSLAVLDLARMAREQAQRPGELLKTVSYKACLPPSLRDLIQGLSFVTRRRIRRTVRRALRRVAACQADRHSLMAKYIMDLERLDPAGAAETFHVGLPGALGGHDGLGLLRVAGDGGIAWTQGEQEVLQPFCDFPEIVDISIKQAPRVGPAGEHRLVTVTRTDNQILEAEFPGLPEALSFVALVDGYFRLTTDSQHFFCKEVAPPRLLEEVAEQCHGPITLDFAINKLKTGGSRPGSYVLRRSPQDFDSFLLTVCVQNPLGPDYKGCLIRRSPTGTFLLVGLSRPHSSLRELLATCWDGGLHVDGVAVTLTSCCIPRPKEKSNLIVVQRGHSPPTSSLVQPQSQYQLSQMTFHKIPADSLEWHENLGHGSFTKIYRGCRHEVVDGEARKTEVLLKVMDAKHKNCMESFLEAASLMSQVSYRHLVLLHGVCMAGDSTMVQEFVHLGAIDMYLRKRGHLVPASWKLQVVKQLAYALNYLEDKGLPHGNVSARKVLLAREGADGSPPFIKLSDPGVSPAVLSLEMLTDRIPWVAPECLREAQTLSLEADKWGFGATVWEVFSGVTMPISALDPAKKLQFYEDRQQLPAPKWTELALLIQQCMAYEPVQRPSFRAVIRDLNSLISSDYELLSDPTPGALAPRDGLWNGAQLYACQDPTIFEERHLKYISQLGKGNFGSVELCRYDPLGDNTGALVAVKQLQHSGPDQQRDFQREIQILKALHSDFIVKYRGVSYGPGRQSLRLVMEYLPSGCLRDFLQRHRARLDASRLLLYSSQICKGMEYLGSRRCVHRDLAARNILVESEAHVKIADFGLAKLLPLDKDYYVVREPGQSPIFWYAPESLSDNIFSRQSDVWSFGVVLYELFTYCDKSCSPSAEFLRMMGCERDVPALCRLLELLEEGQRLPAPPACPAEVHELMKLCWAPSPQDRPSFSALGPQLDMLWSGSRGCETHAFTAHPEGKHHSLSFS
TYK2, sequence (P29597 whole entry): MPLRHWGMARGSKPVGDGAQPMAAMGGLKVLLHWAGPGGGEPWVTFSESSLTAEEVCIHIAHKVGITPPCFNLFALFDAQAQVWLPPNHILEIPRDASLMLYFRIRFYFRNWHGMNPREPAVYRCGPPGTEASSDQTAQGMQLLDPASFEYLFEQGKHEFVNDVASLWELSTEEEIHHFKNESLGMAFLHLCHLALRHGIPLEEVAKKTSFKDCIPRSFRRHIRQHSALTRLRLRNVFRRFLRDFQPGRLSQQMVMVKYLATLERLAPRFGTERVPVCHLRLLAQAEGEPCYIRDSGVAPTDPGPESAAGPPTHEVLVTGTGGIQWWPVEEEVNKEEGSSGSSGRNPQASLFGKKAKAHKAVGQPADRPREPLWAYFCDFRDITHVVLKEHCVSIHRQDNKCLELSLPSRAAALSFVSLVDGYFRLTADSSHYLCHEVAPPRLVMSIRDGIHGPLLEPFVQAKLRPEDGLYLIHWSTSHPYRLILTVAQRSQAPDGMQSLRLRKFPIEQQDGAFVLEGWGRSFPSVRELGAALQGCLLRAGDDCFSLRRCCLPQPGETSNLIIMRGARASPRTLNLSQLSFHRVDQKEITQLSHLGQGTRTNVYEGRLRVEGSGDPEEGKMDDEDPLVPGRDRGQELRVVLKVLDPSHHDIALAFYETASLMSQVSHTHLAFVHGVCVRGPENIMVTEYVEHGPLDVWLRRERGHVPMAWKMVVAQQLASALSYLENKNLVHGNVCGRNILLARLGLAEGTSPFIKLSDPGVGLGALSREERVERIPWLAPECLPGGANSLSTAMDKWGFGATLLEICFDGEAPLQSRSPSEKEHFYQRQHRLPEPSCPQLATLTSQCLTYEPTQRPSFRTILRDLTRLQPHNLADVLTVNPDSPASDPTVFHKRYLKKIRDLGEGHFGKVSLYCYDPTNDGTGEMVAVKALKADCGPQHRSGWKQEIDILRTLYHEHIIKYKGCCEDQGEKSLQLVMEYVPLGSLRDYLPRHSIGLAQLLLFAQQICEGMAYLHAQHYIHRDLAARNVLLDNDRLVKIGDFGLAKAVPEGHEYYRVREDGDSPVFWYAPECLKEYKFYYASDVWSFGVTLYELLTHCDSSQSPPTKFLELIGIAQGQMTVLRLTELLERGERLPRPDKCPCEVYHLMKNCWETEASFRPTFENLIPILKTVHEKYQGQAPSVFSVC
Protocol for Ba/F3-FLT3-ITD^F691: (§1) For in vitro inhibition assays, cells were seeded in 96-well culture plates with a density of 15,000–20,000 cells/well after the cells reached 70–90% confluence. […] MTT (3-(4, 5-dimethylthiazol-2-yl)-2, 5-diphenyltetrazolium bromide) (Cat. No. 1334GR001; BioFroxx) assay was conducted in order to examine viability. The IC50 values were fitted using GraphPad Prism 7.0.
Protocol for HEL: as §1

On to `Cc1cnc(Nc2ccc(N3CCC(N(C)CCO)CC3)c(F)c2)nc1-c1cnn(C(C)C)c1` [FM, 2-((1-(2-fluoro-4-((4-(1-isopropyl-1H-pyrazol-4-yl)-5-methylpyrimidin-2-yl)amino)phenyl)piperidin-4-yl)(methyl)amino)ethan-1-ol], for which the IC50 came to 557 nM against JAK3, 0.26 ± 0.2 µM in the experiment on HEL, 65 nM against TYK2 and 0.15 ± 0.02 µM with Ba/F3-FLT3-ITD^F691.
